Laboratory results taken from patent US20260174878A1, “IRAK4 DEGRADATION AGENT AND USE THEREOF” (LEADINGTAC PHARMACEUTICAL (SHAOXING) CO., LTD., priority 2022, published 2026).

The compounds below were run against T1, IRAK4 protein in normal human PBMCs (Homo sapiens, UniProt Q9NWZ3) (assay: Degradation of IRAK4 protein in normal human PBMCs (AlphaLISA)). Conditions: 24 h incubation.
T1 construct: host or cells: normal human PBMCs
T1 sequence (Q9NWZ3 1-460): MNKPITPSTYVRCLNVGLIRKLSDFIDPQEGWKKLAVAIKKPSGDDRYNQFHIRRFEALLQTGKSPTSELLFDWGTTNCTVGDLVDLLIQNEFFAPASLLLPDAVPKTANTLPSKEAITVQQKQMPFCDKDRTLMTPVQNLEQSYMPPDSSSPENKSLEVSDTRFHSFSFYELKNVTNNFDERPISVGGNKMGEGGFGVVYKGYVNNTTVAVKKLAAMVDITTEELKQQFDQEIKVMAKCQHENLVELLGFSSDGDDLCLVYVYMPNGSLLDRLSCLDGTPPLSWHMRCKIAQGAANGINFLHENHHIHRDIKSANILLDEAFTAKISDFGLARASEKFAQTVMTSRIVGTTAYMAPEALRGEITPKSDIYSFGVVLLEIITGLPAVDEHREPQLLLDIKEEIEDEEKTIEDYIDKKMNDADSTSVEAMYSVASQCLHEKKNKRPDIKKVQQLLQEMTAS
Format: cell-based
Procedure: The cryopreserved normal human PBMCs (Milestone, PB010C) were thawed and resuspended in RPMI 1640 medium (Gibco, A1049101) supplemented with 10% fetal bovine serum (Gibco, 10099141), 100 U/mL penicillin, and 100 µg/mL streptomycin (Gibco, 15140122). After 0.95 mL of cells were plated in each well of a 24-well cell culture plate, 50 µL of diluted compound solution was added to corresponding wells with cells, such that the final concentration of the compound fell within the range of 0.01-3000 nM. The final concentration of DMSO was 0.25%. After the compound-treated cell plate was incubated in an incubator at 37° C. with 5% CO2 for 24 h, the cells were collected into 1.5 mL centrifuge tubes and centrifuged at 1000 rpm at 4° C. for 5 min. The cell pellets were washed twice with 1×DPBS. The resuspended cells were lysed with 100 μL of lysis buffer, left to stand on ice for 30 min, and then centrifuged at 14000 g at 4° C. for 10 min. The samples of the cell lysate supernatant after centrifugation were cryopreserved at −80° C. before testing. The cell lysis buffer was a Western and IP cell lysis buffer (Beyotime, P0013) supplemented with 1 mM phenylmethylsulfonyl fluoride and a protease inhibitor cocktail (Beyotime, P1008).
The total protein concentrations of the cell lysate samples were determined using a BCA protein quantification kit (Tiangen, PA115-02).
The prepared PBMC lysate samples were assayed for IRAK4 concentrations using a human IRAK4 AlphaLISA assay kit (PerkinElmer, AL3117C) to determine the degradation effects of the compounds on IRAK4. The method is as follows:
5 μL of each of IRAK4 standard solutions with different concentrations and test samples of cell lysate supernatant were added to a white 384-well plate (PerkinElmer, 6007299), and then 10 μL of 5× anti-IRAK4 […] beads was added to each well (final concentration of 10 μg/mL). The plate was incubated at room temperature for 30 min. Then 10 μL of 5× biotin-labeled anti-IRAK4 antibody was added to each well (final concentration of 1 nM), and the plate was incubated at room temperature for another 60 min. Finally, 25 μL of 2× streptavidin-labeled donor beads was added to each well (final concentration of 40 μg/mL), and the plate was incubated at room temperature for another 30 min. After the incubation was completed, AlphaLISA signal values were measured on a microplate reader EnVision (PerkinElmer, 2105) in the AlphaScreen standard mode. A standard curve was plotted from the AlphaLISA signal values of the IRAK4 standard solutions with different concentrations, and the IRAK4 concentration of each cell lysate supernatant was determined according to the corresponding concentrations on the standard curve for the AlphaLISA signal values of the test samples and by performing corresponding correction on the total protein concentration of each sample obtained by BCA quantification. The degradation rates for the compounds at each concentration were calculated by comparing the IRAK4 concentration with that of the control group. Then non-linear curve fittings for logarithmic concentration-inhibition rate were performed using GraphPad Prism 8, and the DC50 and Dmax values of the compound were obtained.

DC50 [nM] | Dmax [%] | SMILES
0.39 | 97.2 | O=C1CCN(c2cc(C(=O)N3CCC4(CCC(CN5CCC(n6cc(NC(=O)c7cnn8ccc(N9CCOCC9)nc78)c(C(F)F)n6)CC5)CC4)CC3)ccc2Cl)C(=O)N1 [Example 4, N-(1-(1-((3-(4-chloro-3-(2,4-dioxotetrahydropyrimidin-1(2H)-yl)benzoyl)-3-azaspiro[5.5]undecan-9-yl)methyl)piperidin-4-yl)-3-(difluoromethyl)-1H-pyrazol-4-yl)-5-morpholinopyrazolo[1,5-a]pyrimidine-3-carboxamide]
0.53 | 98.2 | O=C1CCN(c2cc(C(=O)N3CCC4(CCC(CN5CCC(n6cc(NC(=O)c7cnn8ccc(N9CCS(=O)(=O)CC9)nc78)c(C(F)F)n6)CC5)CC4)CC3)ccc2Cl)C(=O)N1 [Example 29, N-(1-(1-((3-(4-chloro-3-(2,4-dioxotetrahydropyrimidin-1(2H)-yl)benzoyl)-3-azaspiro[5.5]undecan-9-yl)methyl)piperidin-4-yl)-3-(difluoromethyl)-1H-pyrazol-4-yl)-5-(1,1-dioxothiomorpholinyl) pyrazolo[1,5-a]pyrimidine-3-carboxamide]
1.28 | 99 | O=C1CCN(c2cc(C(=O)N3CCC4(CCC(CN5CCC(n6cc(NC(=O)c7cnn8ccc(N9C[C@H]%10C[C@@H]9CO%10)nc78)c(C(F)F)n6)CC5)CC4)CC3)ccc2Cl)C(=O)N1 [Example 1, 5-((1R,4R)-2-oxa-5-azabicyclo[2.2.1]heptan-5-yl)-N-(1-(1-((3-(4-chloro-3-(2,4-dioxotetrahydropyrimidin-1(2H)-yl)benzoyl)-3-azaspiro[5.5]undecan-9-yl)methyl)piperidin-4-yl)-3-(difluoromethyl)-1H-pyrazol-4-yl)pyrazolo[1,5-a]pyrimidine-3-carboxamide]
0.72 | 95.7 | O=C1CCN(c2cc(C(=O)N3CCC4(CCC(CCN5CCC(n6cc(NC(=O)c7cnn8ccc(N9CCOCC9)nc78)c(C(F)F)n6)CC5)CC4)CC3)ccc2Cl)C(=O)N1 [Example 20, N-(1-(1-(2-(3-(4-chloro-3-(2,4-dioxotetrahydropyrimidin-1(2H)-yl)benzoyl)-3-azaspiro[5.5]undecan-9-yl)ethyl)piperidin-4-yl)-3-(difluoromethyl)-1H-pyrazol-4-yl)-5-morpholinopyrazolo[1,5-a]pyrimidine-3-carboxamide]
0.45 | 96.2 | Cc1ccc(C(=O)N2CCC3(CCC(CN4CCC(n5cc(NC(=O)c6cnn7ccc(N8C[C@H]9C[C@@H]8CO9)nc67)c(C(F)F)n5)CC4)CC3)CC2)cc1N1CCC(=O)NC1=O [Example 21, 5-((1R,4R)-2-oxa-5-azabicyclo[2.2.1]heptan-5-yl)-N-(3-(difluoromethyl)-1-(1-((3-(3-(2,4-dioxotetrahydropyrimidin-1(2H)-yl)-4-methylbenzoyl)-3-azaspiro[5.5]undecan-9-yl)methyl)piperidin-4-yl)-1H-pyrazol-4-yl)pyrazolo[1,5-a]pyrimidine-3-carboxamide]
0.48 | 96.2 | Cc1ccc(C(=O)N2CCC3(CCC(CN4CCC(n5cc(NC(=O)c6cnn7ccc(N8CC9(COC9)C8)nc67)c(C(F)F)n5)CC4)CC3)CC2)cc1N1CCC(=O)NC1=O [Example 24, N-(3-(difluoromethyl)-1-(1-((3-(3-(2,4-dioxotetrahydropyrimidin-1(2H)-yl)-4-methylbenzoyl)-3-azaspiro[5.5]undecan-9-yl)methyl)piperidin-4-yl)-1H-pyrazol-4-yl)-5-(2-oxa-6-azaspiro[3.3]heptan-6-yl)pyrazolo[1,5-a]pyrimidine-3-carboxamide]
0.37 | 98 | O=C1CCN(c2cc(C(=O)N3CCC4(CCC(CN5CCC(n6cc(NC(=O)c7cnn8ccc(N9CCOCC9)nc78)c(C(F)F)n6)CC5)CC4)CC3)ccc2F)C(=O)N1 [Example 12, N-(3-(difluoromethyl)-1-(1-((3-(3-(2,4-dioxotetrahydropyrimidin-1(2H)-yl)-4-fluorobenzoyl)-3-azaspiro[5.5]undecan-9-yl)methyl)piperidin-4-yl)-1H-pyrazol-4-yl)-5-morpholinopyrazolo[1,5-a]pyrimidine-3-carboxamide]
